{"source": "paper PMC8560754", "about": "“Bridging the gap between in silico and in vivo by modeling opioid disposition in a kidney proximal tubule microphysiological system” (Scientific Reports, 2021)", "key": {"[1]": {"conditions": "human, cited from earlier work"}, "PTECs monolayers": {"tested_on": "PTECs monolayers", "experiment": "Bidirectional transport across PTECs monolayers in conventional 2D Transwell", "type": "in vitro ADME, human", "conditions": "for CLint, secretion: considered as zero since no active secretion was observed in 2D Transwell; for Papp A→B / Papp B→A: Inhibitor (-), 1.5 hour incubation; for Papp A→B: read-out: Papp Apical to Basal; for Papp B→A: read-out: Papp Basal to Apical", "description": "(§1) PTECs were seeded on polyester membrane HTS 24-well Transwell^TM inserts at 0.5-1 ×10^5 cells/well and cultured for 7-10 days until confluency. Transepithelial electrical resistance\n(§2) (TEER) across PTECs monolayers was monitored by an EVOM meter from World Precision Instruments (Berlin, Germany). TEER values were normalized to culture surface areas of Transwell^TM inserts. Wells with TEER reading from 25-150 ohm∙cm^2 were used for experiments.\n(§3) Samples were collected from basal (for apical to basal transport) or apical (for basal to apical transport) insert and analyzed by LC/MS/MS. Concentrations were used to determine apparent permeability (Papp) by using the following equation: […]"}, "[2]": {"experiment": "Bidirectional transport across PTECs monolayers in conventional 2D Transwell", "type": "in vitro ADME, human", "conditions": "human; for Papp at 1.5 h, 1 µM: PTECs permeability study data used for CLr prediction; for Papp A→B at 1.5 h, 1 µM / Papp B→A at 1.5 h, 1 µM: Inhibitor (-), 1.5 hour incubation; for Papp A→B at 1.5 h, 1 µM: read-out: Papp Apical to Basal; for Papp B→A at 1.5 h, 1 µM: read-out: Papp Basal to Apical", "description": "as §1, §2, §3"}, "[3]": {"experiment": "Transport of morphine and M6G in the vascularized proximal tubule MPS (VPT-MPS)", "type": "in vitro ADME, human", "conditions": "human, with probenecid (1 mM) and tetraethylammonium (1 mM), read-out: Permeability", "description": "(§4) The inner chamber of dual-channel MPS devices (Duplo, Fig. 1) (https://www.nortisbio.com/) was dried, filled with 6 mg/mL of rat tail collagen I, and left overnight to allow the collagen I matrix to solidify. The mandrels of the MPS platforms were then removed, leaving two hollow channels through the collagen I matrix. The PTEC channel was coated with a 5 µg/mL mouse collagen IV to facilitate human PTECs adhesion. Cultures of primary kidney epithelial cells were subjected to trypsin digestion to obtain single cell suspensions. The cells were counted and resuspended with PTECs culture media at a concentration of 20 × 10^6 cells/mL and 2–2.5 µL were injected into the collagen IV-coated channel. Cells were allowed to attach for 3 h before starting perfusion at a rate of 1.0 µL/min. A 1.0 µL/min perfusion of DMEM/F12 media containing ITS-A, 50 nM hydrocortisone, penicillin–streptomycin and amphotericin B was then initiated. Following 6 days under these culture conditions, the epithelial tubule was established and perfusion to the channel was stopped for a brief period. The parallel vacant channel was equilibrated with EGM-2 media containing 2% FBS for 2 h at 1.0 µL/min. Then, HUVECs (passages 5–10) were seeded into the equilibrated channel and allowed to attach for 30 min to establish an endothelial vessel. Flow to both channels was resumed at 1.0 µL/min with both channels receiving their respective culture medium. The day after seeding HUVEC, VPT-MPS were used for transport experiments. Prior to the beginning of experiments, a visual inspection under light microscope was performed to confirm complete (100%) coverage of both HUVEC vessel and PTEC tubule, respectively.\n(§5) The flow rate of flow through both channels was set at 1 µL/min. Effluents from the vessel and the tubule were collected every 2 h, and drug concentrations in the samples were determined LC/MS/MS. Transport experiments were conducted across 3 different donors. Effluent measurements were extended out to 24 h in order to reach steady-state levels in solute output."}, "[4]": {"tested_on": "human primary proximal tubular epithelial cells (PTEC) tubule in VPT-MPS", "experiment": "Transport of morphine and M6G in the vascularized proximal tubule MPS (VPT-MPS)", "type": "in vitro ADME", "conditions": "for CLint,sec: VPT-MPS derived intrinsic secretion clearance; for CLsecretion, each proximal subsegment S1, S2, and S3: clearance value of each proximal subsegment; for CLsecretion, each proximal subsegment S1, S2, and S3 / CLsecretion: scaled up from VPT-MPS; for CLsecretion: unbound intrinsic kidney active secretion clearance at proximal tubule, total; for CLapp, passive diffusion / CLapp, active secretion: one representative donor; for CLapp, passive diffusion / Concentration in endothelial cell / Efflux rate into lumen / CLapp, active secretion: mean ± SD; for Concentration in endothelial cell / Efflux rate into lumen: representative donor of Fig 2", "description": "as §4, §5"}, "[5]": {"conditions": "blood-to-plasma ratio; cited from earlier work"}, "[6]": {"conditions": "ref www.drugbank.ca; cited from earlier work"}, "[7]": {"experiment": "Bidirectional transport across MDCK monolayers in conventional 2D Transwell", "type": "in vitro ADME", "conditions": "dog, Inhibitor (-), 1.5 hour incubation", "description": "as §3"}, "[8]": {"conditions": "fraction of morphine metabolism to M6G; cited from earlier work"}, "[9]": {"experiment": "Morphine-M6G parent-metabolite full body PBPK model", "parameters": "species or system human", "conditions": "hepatic clearance; systemic clearance minus renal clearance"}}, "note": "Where two headings read alike, the source gives them in different places. Marks after values point to notes of the source that are not given here.", "data": [{"smiles": "CN1CC[C@]23c4c5ccc(O)c4O[C@H]2[C@@H](O[C@@H]2O[C@H](C(=O)O)[C@@H](O)[C@H](O)[C@H]2O)C=C[C@H]3[C@H]1C5", "note": "[M6G, morphine-6-glucuronide]", "values": [{"measurement": "CLr,observed", "setting": "[1]", "value": "9.20–14.3[20],[21] L/h"}, {"measurement": "CLr,observed", "setting": "[1]; ref 5,6 (supplement)", "value": "9.20-14.3 ^5,6 L/hr"}, {"measurement": "CLint, secretion", "setting": "PTECs monolayers; Donor2", "value": 0, "unit": "µL/h"}, {"measurement": "CLint, secretion", "setting": "PTECs monolayers; Donor3", "value": 0, "unit": "µL/h"}, {"measurement": "CLint, secretion", "setting": "PTECs monolayers; Donor5", "value": 0, "unit": "µL/h"}, {"measurement": "CLint, secretion", "setting": "PTECs monolayers; Donor6", "value": 0, "unit": "µL/h"}, {"measurement": "Papp at 1.5 h, 1 µM", "setting": "[2]; Donor3", "value": 40.1, "unit": "×10⁻⁶ cm/s"}, {"measurement": "Papp at 1.5 h, 1 µM", "setting": "[2]; Donor5", "value": 28.6, "unit": "×10⁻⁶ cm/s"}, {"measurement": "Papp at 1.5 h, 1 µM", "setting": "[2]; Donor6", "value": 40.1, "unit": "×10⁻⁶ cm/s"}, {"measurement": "Papp A→B at 1.5 h, 1 µM", "setting": "[2]; Donor2", "value": 58, "unit": "×10⁻⁶ cm/s"}, {"measurement": "Papp B→A at 1.5 h, 1 µM", "setting": "[2]; Donor2", "value": 54.6, "unit": "×10⁻⁶ cm/s"}, {"measurement": "Papp A→B at 1.5 h, 1 µM", "setting": "[2]; Donor3", "value": "40.1 ± 7.5", "unit": "×10⁻⁶ cm/s"}, {"measurement": "Papp B→A at 1.5 h, 1 µM", "setting": "[2]; Donor3", "value": "24.9 ± 14.2", "unit": "×10⁻⁶ cm/s"}, {"measurement": "Papp A→B at 1.5 h, 1 µM", "setting": "[2]; Donor4", "value": 22.5, "unit": "×10⁻⁶ cm/s"}, {"measurement": "Papp B→A at 1.5 h, 1 µM", "setting": "[2]; Donor4", "value": 12.2, "unit": "×10⁻⁶ cm/s"}, {"measurement": "Papp A→B at 1.5 h, 1 µM", "setting": "[2]; Donor5", "value": "28.6 ± 1.6", "unit": "×10⁻⁶ cm/s"}, {"measurement": "Papp B→A at 1.5 h, 1 µM", "setting": "[2]; Donor5", "value": "28.6 ± 2.1", "unit": "×10⁻⁶ cm/s"}, {"measurement": "Papp A→B at 1.5 h, 1 µM", "setting": "[2]; Donor6", "value": 55.6, "unit": "×10⁻⁶ cm/s"}, {"measurement": "Papp B→A at 1.5 h, 1 µM", "setting": "[2]; Donor6", "value": 42.2, "unit": "×10⁻⁶ cm/s"}, {"measurement": "Papp at 24 h, 1 µM", "setting": "[3]; Donor1, VPT-MPS", "value": "25.9 ± 28.5", "unit": "×10⁻⁶ cm/s"}, {"measurement": "Papp at 24 h, 1 µM", "setting": "[3]; Donor2, VPT-MPS", "value": "9.74 ± 11.1", "unit": "×10⁻⁶ cm/s"}, {"measurement": "Papp at 24 h, 1 µM", "setting": "[3]; Donor3, VPT-MPS", "value": 41.8, "unit": "×10⁻⁶ cm/s"}, {"measurement": "Papp at 24 h, 1 µM", "setting": "[3]; PBPK model parameter, experimentally determined using VPT-MPS", "value": 23.8, "unit": "×10⁻⁶ cm/s"}, {"measurement": "decrease in intrinsic clearance by transporter inhibitors", "setting": "[4]; 1 mM probenecid and 1 mM tetraethylammonium, average of three donors", "value": 63.6, "unit": "%"}, {"measurement": "CLint,sec", "setting": "[4]; Donor1", "value": "15.6 ± 10.5", "unit": "µL/h/MPS"}, {"measurement": "CLint,sec", "setting": "[4]; Donor2", "value": "1.29 ± 1.09", "unit": "µL/h/MPS"}, {"measurement": "CLint,sec", "setting": "[4]; Donor3", "value": 22.9, "unit": "µL/h/MPS"}, {"measurement": "CLsecretion, each proximal subsegment S1, S2, and S3", "setting": "[4]", "value": 14.5, "unit": "L/h"}, {"measurement": "CLint, active secretion, range between PTECs donors", "setting": "[4]; three donors", "value": "1.29–22.9 µL/h/VPT-MPS"}, {"measurement": "CLsecretion", "setting": "[4]", "value": 43.5, "unit": "L/h"}, {"measurement": "CLapp, passive diffusion", "setting": "[4]; with inhibitor", "value": "1.92±2.02", "unit": "μL/hr/MPS"}, {"measurement": "Concentration in endothelial cell", "setting": "[4]; with inhibitor", "value": "639 ± 34", "unit": "nM"}, {"measurement": "Efflux rate into lumen", "setting": "[4]; with inhibitor", "value": "0.0191 ± 0.0192", "unit": "pmol/min/MPS"}, {"measurement": "CLapp, active secretion", "setting": "[4]; without inhibitor", "value": "7.90±3.86", "unit": "μL/hr/MPS"}, {"measurement": "Concentration in endothelial cell", "setting": "[4]; without inhibitor", "value": "640 ± 58", "unit": "nM"}, {"measurement": "Efflux rate into lumen", "setting": "[4]; without inhibitor", "value": "0.110 ± 0.043", "unit": "pmol/min/MPS"}, {"measurement": "B/P", "setting": "[5]", "value": "0.55^e"}, {"measurement": "pKa (base)", "setting": "[6]", "value": "9.12^b"}, {"measurement": "Papp A→B at 1.5 h, 1 µM", "setting": "[7]; read-out: Papp Apical to Basal", "value": 3.86, "unit": "×10⁻⁶ cm/s"}, {"measurement": "Papp B→A at 1.5 h, 1 µM", "setting": "[7]; read-out: Papp Basal to Apical", "value": "1.53 ± 0.17", "unit": "×10⁻⁶ cm/s"}]}, {"smiles": "CN1CC[C@]23c4c5ccc(O)c4O[C@H]2[C@@H](O)C=C[C@H]3[C@H]1C5", "note": "[Morphine, reference compound]", "values": [{"measurement": "CLsecretion, each proximal subsegment S1, S2, and S3", "setting": "[4]", "value": 13.1, "unit": "L/h"}, {"measurement": "CLsecretion", "setting": "[4]", "value": 39.3, "unit": "L/h"}, {"measurement": "CLapp, passive diffusion", "setting": "[4]; with inhibitor", "value": "2.09±1.58", "unit": "μL/hr/MPS"}, {"measurement": "CLapp, active secretion", "setting": "[4]; without inhibitor", "value": "6.98±3.94", "unit": "μL/hr/MPS"}, {"measurement": "B/P", "setting": "[5]", "value": "1.08^e"}, {"measurement": "fm,M6G", "setting": "[8]", "value": "0.1^k"}, {"measurement": "CLh", "setting": "[9]", "value": "75.3^i L/h"}]}, {"smiles": "Nc1ccc(C(=O)NCC(=O)O)cc1", "note": "[[^3H] PAH, para-aminohippuric acid, reference compound]", "values": [{"measurement": "active transport in 2D Transwell", "setting": "PTECs monolayers; 2D culture, probe substrate of OAT1 and OAT3", "value": "negligible active transport"}, {"measurement": "Papp A→B", "setting": "PTECs monolayers; Donor2", "value": 72.4, "unit": "×10⁻⁶ cm/s"}, {"measurement": "Papp B→A", "setting": "PTECs monolayers; Donor2", "value": 69.6, "unit": "×10⁻⁶ cm/s"}, {"measurement": "Papp A→B", "setting": "PTECs monolayers; Donor3", "value": 31.7, "unit": "×10⁻⁶ cm/s"}, {"measurement": "Papp B→A", "setting": "PTECs monolayers; Donor3", "value": 23, "unit": "×10⁻⁶ cm/s"}, {"measurement": "Papp A→B", "setting": "PTECs monolayers; Donor6", "value": 71.7, "unit": "×10⁻⁶ cm/s"}, {"measurement": "Papp B→A", "setting": "PTECs monolayers; Donor6", "value": 67.3, "unit": "×10⁻⁶ cm/s"}]}]}
